Columns and labels:
[1] = biological target: SHV-12 (Klebsiella pneumoniae, UniProt P0AD64, E235K/G234S/L31Q); conditions: read-out: KM substrate, NaPi 50 mM pH 7.0
Protocol: (§3) The β-lactamases used in the present study were from a Clinical Biochemistry Laboratory collection (Department of Biotechnological and Applied Clinical Sciences, University of L’Aquila, L’Aquila, Italy). All enzymes show a purity degree of higher than 95%. The concentration of each enzyme was determined by a Bradford assay.

[2] = biological target: T1, AmpC (Escherichia coli, UniProt P00811); conditions: read-out: KM substrate; pH 7
Protocol: (§1) The β-lactamases used in the present study were from a Clinical Biochemistry Laboratory collection (Department of Biotechnological and Applied Clinical Sciences, University of L’Aquila, L’Aquila, Italy). […] The concentration of each enzyme was determined by a Bradford assay.

[3] = biological target: KPC-53 (Klebsiella pneumoniae, UniProt Q9F663, DUP166-167/H272Y); conditions: read-out: KM substrate, NaPi 50 mM pH 7.0
Protocol: as §3

[4] = biological target: NDM-1 (Klebsiella pneumoniae, UniProt C7C422); conditions: read-out: KM substrate, HEPES 20 mM pH 7.0 + 20 µM Zn
Protocol: as §1

[5] = biological target: OXA-48 (Klebsiella pneumoniae, UniProt Q6XEC0); assay: KM of reporter substrate (Hanes-Woolf); type: biochemical; conditions: NaPi 50 mM pH 7.0
Protocol: as §3

[6] = biological target: ADC-7; set-up: method as in PMID 26102369, PMID 34970229, PMID 37358467, PMID 26729491; conditions: ref [17],[19],[35],[36]; cited from earlier work
[7] = biological target: T2, KPC-2 (Klebsiella pneumoniae, UniProt Q9F663); set-up: method as in PMID 26102369, PMID 34970229, PMID 37358467, PMID 26729491; conditions: ref [17],[19],[35],[36]; cited from earlier work
T2 construct: made in house

[8] = biological target: T1, AmpC; assay: Competitive inhibition assay with nitrocefin, Ki; type: biochemical; set-up: made in house; conditions: AmpC; values in nM
Protocol: as §1
The plot v0/vi versus [I] yielded a straight line of slope KM/(KM + S) × Ki.
Figure 9 Compounds synthesised and their biological evaluation. AC = Amplification coefficient. […] Light blue indicates the compounds from the AmpC screening.

[9] = biological target: T1, AmpC; assay: LC-MS t-SIM detection of boronic acids incubated with AmpC; set-up: made in house; conditions: 24 h, 37 °C
From the text: Given that boronic acids act as transition-state inhibitors by binding the catalytic serine of β-lactamases through a reversible covalent bond, we aimed to determine whether the in situ click chemistry reaction products were quantitatively detected during LC–MS analysis. Although boronic acids are reversible binders, their fast on–slow off behaviour raised concerns that triazole product formation might be underestimated due to covalent adducts forming with the protein target. To investigate this, compound 10a, warhead 3, and compounds 8 and 9 were incubated with AmpC (1:1 or 1:5 protein:compound ratio), and their detection was monitored over 24 h (Figure 10). […] The percentage of boronic acids detected was estimated using peak area measurements in the LC–MS-targeted SIM mode, with quantification being performed using calibration curves. The experiments were conducted at 37 °C in a 95:5 sodium phosphate 50 mM pH 7.0:DMSO mixture.
Figure 10 The % of detection of 10a (grey box), 3 (yellow box), 8 (green box), and 9 (blue box) over the course of the 24 h using the t-SIM method. Each cpd was tested in presence of 20% mol of AmpC or stoichiometric amount of AmpC. Each box includes 4 columns corresponding to % boronic acid detected at a certain time point (0, 8, 16, and 24 h).

[10] = biological target: T1, AmpC; set-up: made in house; conditions: AmpC 20 mol%; warhead 3 + alkyne cluster; 37 °C, 24 h
Protocol: Following the same conditions used for the multicomponent screening with KPC-2, the in situ click chemistry experiment was performed using AmpC as template.
(§2) Binary and multicomponent KTGS. […] The microtube was shaken at 300 rpm at 37 °C for 24 h. Reactions were transferred into a LC–MS vial and directly injected (10 µL) for liquid chromatography–mass spectrometry (LC–MS). Reactions were analysed with an Ultimate 3000 UHPLC coupled to a Q-exactive hybrid quadrupole-orbitrap mass spectrometer via an HESI-II heated electrospray ionisation source. The chromatographic separation was performed injecting a 10 µL sample volume on a Hypersil Gold C18 100 × 2.1 mm, 1.9 µm column (Thermo Fisher Scientific), kept at 30 °C eluting with 0.3 mL/min flow of ultrapure water (A) and methanol (B), both with 0.1% formic acid as mobile phase. […] A data-dependent mass spectrometric data acquisition strategy was used for full MS/DD-MS2. […] An inclusion list was eventually used to target the MS2 spectra acquisition of preferred ion species. Detection was based on calculated [M+H]^+ and [M−H]^− molecular ions with a 5 ppm accuracy tolerance for their respective ion chromatogram extraction. Peak retention time and area of detected target compounds was used for their detection and semi-quantitative evaluation in between reaction batches.
For controls (buffer and BSA), AmpC/KPC-2 is replaced with no enzyme (buffer volume 95 µL) and BSA (stock 100 µM, final concentration 5 µM, buffer volume 90 µL). Hits were identified in each cluster by mass and retention time and compared with both controls (buffer and BSA) and synthetically prepared triazoles obtained in mixtures.

[11] = biological target: T1, AmpC; assay: Binary in situ click chemistry between 3 and Al-12, with or without SM23; set-up: made in house; conditions: binary 3 + Al-12; AmpC 20 mol%; SM23 1 mol%
Protocol: as §2
For controls (buffer and BSA), AmpC/KPC-2 is replaced with no enzyme (buffer volume 95 µL) and BSA (stock 100 µM, final concentration 5 µM, buffer volume 90 µL). […]

T1 sequence (P00811 20-377): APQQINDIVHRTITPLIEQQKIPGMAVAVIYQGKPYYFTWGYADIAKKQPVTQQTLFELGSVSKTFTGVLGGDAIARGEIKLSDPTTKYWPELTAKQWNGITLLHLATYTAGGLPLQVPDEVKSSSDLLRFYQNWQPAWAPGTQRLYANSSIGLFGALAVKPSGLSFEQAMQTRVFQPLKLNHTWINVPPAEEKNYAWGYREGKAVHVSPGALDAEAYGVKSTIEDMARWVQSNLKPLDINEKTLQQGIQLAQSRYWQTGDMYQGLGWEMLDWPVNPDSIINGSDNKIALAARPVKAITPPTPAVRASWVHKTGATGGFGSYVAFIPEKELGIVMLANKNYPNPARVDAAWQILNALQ

**Q.** Which results are given for O=C(Cc1cccs1)N[C@@H]1C(=O)N2C(C(=O)O)=C(/C=C/c3ccc([N+](=O)[O-])cc3[N+](=O)[O-])CS[C@H]12 [NCF, Nitrocefin]?
**A.** Km [1]: 50 ± 3 µM; Km [2]: 118 ± 2 µM; Km [3]: 106 ± 2 µM

**Q.** Which Km [4] does the source give for C[C@@H](O)[C@H]1C(=O)N2C(C(=O)O)=C(S[C@@H]3CN[C@H](C(=O)N(C)C)C3)[C@H](C)[C@H]12 [MPM, Meropenem] here?
**A.** The Km was 80 ± 1 µM.

**Q.** Which Km [5] does the source give for C[C@@H](O)[C@H]1C(=O)N2C(C(=O)O)=C(SCCN=CN)C[C@H]12 [IMI, Imipenem] here?
**A.** Its Km is 13 ± 1 µM.

**Q.** Which Ki [6] does the source give for O=C(Cc1cccs1)NC(Cn1cc(C(=O)O)nn1)B(O)O (stereo not drawn) [S02030] here?
**A.** Its Ki is 0.045 µM.

**Q.** What about the IC50 [7] of the same molecule?
**A.** The IC50 was 0.08 µM.

**Q.** For O=S(=O)(NCc1cnnn1Cc1cccc(B(O)O)c1)C1CCCCC1 [10a], which Ki [8] is on record?
**A.** The Ki was 140 nM.

**Q.** And the “% boronic acid detected (remaining)” value ([9]; 20 mol% AmpC, sodium phosphate pH 7.0:DMSO 95:5)?
**A.** Its value is 83%.

**Q.** What about the “boronic acid level detected” value ([9]; stoichiometric AmpC) of the same molecule?
**A.** The value was “remained stable”.

**Q.** What about the “AC (amplification coefficient)” value [10] of the same molecule?
**A.** Its value is 5-6.

**Q.** And the “AC 10/10a” value [11]?
**A.** Its value is 1-2.

Reference: PMC12071365, “Discovery of Boronic Acids-Based β-Lactamase Inhibitors Through In Situ Click Chemistry” (International Journal of Molecular Sciences, 2025)
